Test results reported in publication PMC8032624, “Prediction of dose-dependent in vivo acetylcholinesterase inhibition by profenofos in rats and humans using physiologically based kinetic (PBK) modeling-facilitated reverse dosimetry” (Archives of Toxicology, 2021).

Columns and labels:
[1] = target: T1, rat RBC AChE (Rattus norvegicus, UniProt P37136); assay: In vitro inhibition of rat erythrocyte (RBC) AChE; format: biochemical
T1 construct: contained 0.005 mg/ml erythrocyte ‘ghost’ membrane protein; tissue BioIVT; host or cells: rat blood; erythrocyte 'ghost' membranes (Sprague-Dawley rats)
Procedure: (§1) To perform reverse dosimetry of in vitro AChE inhibition by profenofos, first the in vitro AChE activity in the absence or presence of increasing concentrations of profenofos was determined. For humans, commercially available recombinant AChE was used. For rats, no commercially available recombinant AChE was available, so rat AChE was obtained from rat blood as described below.
AChE activity was expressed as enzyme activity (percent of control). The concentration of profenofos that produced a 50% decrease in AChE activity (IC50) was determined from best‐fit plots of the mean (± SD) percentages of inhibition vs. the 10log logarithm of profenofos concentrations using GraphPad Prism 5, version 5.04 (San Diego, California, USA) equation: Y=100/(1+10^(X-LogIC50)).
Rat blood samples were processed according to a method reported by Larsen et al. ([2019]) with a few modifications to isolate the extrinsic membrane bound AChE. Briefly, the blood sample (2 ml) was centrifuged at 3000g for 15 min to separate plasma and cells. […] Aliquots of erythrocyte ‘ghost’ membrane preparations were used for protein measurement using the Pierce™ BCA Protein Assay Kit (Thermofisher) with BSA as standard for quantification (Lowry et al. [1951]), and for AChE activity assessment.
The effect of profenofos on rat AChE activity was assessed as described above for human recombinant AChE, with a few modifications. […]

[2] = tested on: AChE of human erythrocytes; details: freshly obtained human erythrocytes; ref Das and Jamil [2006]; read-out: IC50 AChE inhibition; cited from earlier work
[3] = target: AChE (Homo sapiens, UniProt P22303); assay: In vitro inhibition of human recombinant AChE (Ellman); format: biochemical; design: purchased Sigma-Aldrich; details: 15-min incubation at 37 °C
Procedure: as §1
AChE inhibition was determined following the protocol of Ellman et al. ([1961]) as modified by Chambers and Chambers ([1989]). The concentration of acetylthiocholine and recombinant AChE were optimized to be linear for metabolite formation (data not shown). Human recombinant AChE was dissolved in 0.1 M sodium phosphate (pH 7.4) containing 1 mg/ml BSA (which was present to stabilize human recombinant AChE (Rosenfeld and Sultatos [2006])) to reach an enzyme concentration of 200 U/ml. Subsequently, the AChE enzyme solution was further diluted with 0.1 M sodium phosphate (pH 7.4) containing 1 mg/ml BSA to a working concentration of 1 U/ml. […] Subsequently, the time-dependent increase in absorbance due to formation of chromophore (DTNB + thiocholine) was measured at 37 °C using a wavelength of 412 nm during a period of 10 min, using a spectrophotometer (SpectraMax, Molecular Devices, UK).
AChE activity was expressed as enzyme activity (percent of control). […]

T1 sequence (P37136 other isoform, or with tags, fused parts or gaps): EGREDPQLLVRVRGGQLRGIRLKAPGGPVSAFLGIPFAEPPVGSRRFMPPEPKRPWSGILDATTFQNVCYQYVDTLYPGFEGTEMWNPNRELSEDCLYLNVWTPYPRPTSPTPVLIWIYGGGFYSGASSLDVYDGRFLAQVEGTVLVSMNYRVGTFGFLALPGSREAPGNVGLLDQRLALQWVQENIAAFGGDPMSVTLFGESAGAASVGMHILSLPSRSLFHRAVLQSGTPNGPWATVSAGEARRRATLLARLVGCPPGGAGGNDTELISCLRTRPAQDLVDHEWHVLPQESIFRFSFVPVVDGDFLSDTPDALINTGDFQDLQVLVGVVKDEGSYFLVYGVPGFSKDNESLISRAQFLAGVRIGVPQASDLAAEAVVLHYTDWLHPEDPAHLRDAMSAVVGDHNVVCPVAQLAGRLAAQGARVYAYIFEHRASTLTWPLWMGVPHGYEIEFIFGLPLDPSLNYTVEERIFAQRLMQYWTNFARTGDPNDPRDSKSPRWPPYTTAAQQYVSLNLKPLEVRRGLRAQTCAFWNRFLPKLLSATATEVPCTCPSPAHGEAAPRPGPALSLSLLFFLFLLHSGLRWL
Sequence of AChE (P22303 32-614): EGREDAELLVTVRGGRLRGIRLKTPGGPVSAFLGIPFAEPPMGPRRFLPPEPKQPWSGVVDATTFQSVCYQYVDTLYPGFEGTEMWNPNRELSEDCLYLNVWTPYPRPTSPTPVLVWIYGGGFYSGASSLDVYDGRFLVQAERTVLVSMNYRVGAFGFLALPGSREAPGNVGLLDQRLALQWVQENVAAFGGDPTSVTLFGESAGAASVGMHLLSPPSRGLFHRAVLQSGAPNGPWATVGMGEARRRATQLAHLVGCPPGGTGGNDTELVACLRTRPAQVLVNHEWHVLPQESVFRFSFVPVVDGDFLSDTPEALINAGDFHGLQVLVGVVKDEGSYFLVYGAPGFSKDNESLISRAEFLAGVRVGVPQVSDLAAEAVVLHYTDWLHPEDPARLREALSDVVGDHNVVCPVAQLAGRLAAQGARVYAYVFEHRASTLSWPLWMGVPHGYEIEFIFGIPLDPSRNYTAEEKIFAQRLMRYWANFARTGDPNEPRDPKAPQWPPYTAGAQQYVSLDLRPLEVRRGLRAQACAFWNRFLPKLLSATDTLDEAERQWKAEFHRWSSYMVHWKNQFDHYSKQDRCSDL

Compound: CCCSP(=O)(OCC)Oc1ccc(Br)cc1Cl (stereo not drawn) [profenofos, O-(4-bromo-2-chlorophenyl) O-ethyl S-propyl phosphorothioate]
- IC50 [1]: 312 nM
- IC50 [2]: 350 nM
- IC50 [3]: 302 nM
